Test results: the supplement of paper PMC13380429

Columns and labels:
Conditions in all cases: 72 h
Caco-2 [1] = experiment: cell viability relative to DMSO; higher = less toxic
Calu-3 [2] = experiment: as above
U2OS [3] = experiment: as above
Vero E6 [4] = experiment: as above
Caco-2 [5] = experiment: relative viability EC50 (midpoint between 100% and the lowest measured viability); higher = less toxic
Calu-3 [6] = experiment: as above
U2OS [7] = experiment: as above
Vero E6 [8] = experiment: as above
Caco-2 [9] = experiment: drug sensitivity score (DSS) for viability; higher = more toxic; extreme values may be limits of the assay
Calu-3 [10] = experiment: as above
U2OS [11] = experiment: as above
Vero E6 [12] = experiment: as above
HepG2 [13] = experiment: as above
HepG2 [14] = experiment: cell viability relative to DMSO; higher = less toxic

| Structure (SMILES) | cell viability (Caco-2 [1]; 1 nM) [%] | cell viability (Caco-2 [1]; 10 nM) [%] | cell viability (Caco-2 [1]; 100 nM) [%] | cell viability (Caco-2 [1]; 1000 nM) [%] | cell viability (Caco-2 [1]; 10000 nM) [%] | cell viability (Calu-3 [2]; 1 nM) [%] | cell viability (Calu-3 [2]; 10 nM) [%] | cell viability (Calu-3 [2]; 100 nM) [%] | cell viability (Calu-3 [2]; 1000 nM) [%] | cell viability (Calu-3 [2]; 10000 nM) [%] | cell viability (U2OS [3]; 1 nM) [%] | cell viability (U2OS [3]; 10 nM) [%] | cell viability (U2OS [3]; 100 nM) [%] | cell viability (U2OS [3]; 1000 nM) [%] | cell viability (U2OS [3]; 10000 nM) [%] | cell viability (Vero E6 [4]; 1 nM) [%] | cell viability (Vero E6 [4]; 10 nM) [%] | cell viability (Vero E6 [4]; 100 nM) [%] | cell viability (Vero E6 [4]; 1000 nM) [%] | cell viability (Vero E6 [4]; 10000 nM) [%] | relative viability EC50 (Caco-2 [5]) [µM] | relative viability EC50 (Calu-3 [6]) [µM] | relative viability EC50 (U2OS [7]) [µM] | relative viability EC50 (Vero E6 [8]) [µM] | drug sensitivity score (Caco-2 [9]) | drug sensitivity score (Calu-3 [10]) | drug sensitivity score (U2OS [11]) | drug sensitivity score (Vero E6 [12]) | drug sensitivity score (HepG2 [13]) | cell viability (HepG2 [14]; 1 nM) [%] | cell viability (HepG2 [14]; 10 nM) [%] | cell viability (HepG2 [14]; 100 nM) [%] | cell viability (HepG2 [14]; 1000 nM) [%] | cell viability (HepG2 [14]; 10000 nM) [%] |
| --- | --- | --- | --- | --- | --- | --- | --- | --- | --- | --- | --- | --- | --- | --- | --- | --- | --- | --- | --- | --- | --- | --- | --- | --- | --- | --- | --- | --- | --- | --- | --- | --- | --- | --- |
| COc1cc(/C=C/C(=O)O)ccc1O [ferulic-acid] | 99 | 97.8 | 96.4 | 92.2 | 103 | 93.8 | 98.6 | 103 | 95.6 | 94.2 | 97.8 | 102 | 99.9 | 99.3 | 101 | 94 | 107 | 94.5 | 96.2 | 107 | > 10 | > 10 | > 10 | > 10 | 0 | 0 | 0 | 0 |  |  |  |  |  |  |
| O=C(/C=C/c1ccc(O)c(O)c1)O[C@@H]1C[C@](O)(C(=O)O)C[C@@H](O)[C@H]1O [chlorogenic-acid] |  |  |  |  |  |  |  |  |  |  |  |  |  |  |  |  |  |  |  |  |  |  |  |  |  | 0 | 0 | 0 | 0 |  |  |  |  |  |
| C[C@@H](N)[C@@H](O)c1ccccc1 [1S,2R-phenylpropanolamine] | 98.5 | 107 | 97.4 | 102 | 110 | 106 | 106 | 98.8 | 102 | 99.7 |  |  |  |  |  | 101 | 101 | 101 | 103 | 97.7 | > 10 | > 10 |  | > 10 | 0 | 0 |  | 0 |  |  |  |  |  |  |
| CCOc1ccc(Cc2nccc3cc(OCC)c(OCC)cc23)cc1OCC [ethaverine] | 89.5 | 87.4 | 90.3 | 82.9 | 77.3 | 98.8 | 100 | 101 | 105 | 69.3 | 93.3 | 106 | 95.4 | 96.6 | 86.1 | 116 | 90.6 | 103 | 95.2 | 90.9 | > 10 |  | > 10 | > 10 | 3.6 | 1.1 | 0.3 | 0 | 5.1 | 86.2 | 91.2 | 105 | 76.5 | 57.3 |
| CC(C)NC[C@@H](C(=O)N1CCN(c2ncnc3c2[C@H](C)C[C@H]3O)CC1)c1ccc(Cl)cc1 [GDC-0068] | 107 | 107 | 96 | 83.2 | 69.1 | 101 | 108 | 89.9 | 80.8 | 56.7 | 105 | 100 | 101 | 96.8 | 87.2 | 105 | 102 | 100 | 101 | 93.2 |  |  | > 10 | > 10 | 3 | 4.3 | 0.3 | 0 | 1.3 | 109 | 115 | 108 | 98.9 | 71.4 |
| COc1ccc(C(C)=O)c(O)c1 [paeonol] | 96.6 | 96 | 103 | 96.5 | 110 | 95.6 | 95.9 | 91.2 | 99.8 | 105 | 95 | 96.8 | 95.8 | 95.8 | 97.7 | 95.4 | 98.7 | 96.9 | 94.1 | 106 | > 10 | > 10 | > 10 | > 10 | 0 | 0 | 0 | 0 |  |  |  |  |  |  |
| Cn1ncnc1[C@H]1c2n[nH]c(=O)c3cc(F)cc(c23)N[C@@H]1c1ccc(F)cc1 [talazoparib] | 105 | 96.3 | 93.7 | 82.7 | 85.9 | 105 | 84.3 | 93.3 | 68.9 | 58.2 |  |  |  |  |  | 95.1 | 97.6 | 77.6 | 66.3 | 54.5 | > 10 |  |  |  | 2.1 | 6.3 |  | 8.7 | 8.5 | 98.8 | 89.3 | 77.3 | 71.4 | 50.1 |
| C[C@H]1[C@H](C)CC[C@]2(C(=O)O)CC[C@]3(C)C(=CC[C@@H]4[C@@]5(C)C[C@@H](O)[C@H](O)C(C)(C)[C@@H]5CC[C@]43C)[C@H]12 [corosolic-acid] | 107 | 110 | 102 | 108 | 99.6 | 96.8 | 106 | 103 | 95.3 | 99.8 |  |  |  |  |  | 101 | 104 | 99.7 | 104 | 103 | > 10 | > 10 |  | > 10 | 0 | 0 |  | 0 |  |  |  |  |  |  |
| CC(=O)O[C@H]1CC[C@@]2(C)C(=CC[C@@H]3[C@@H]2CC[C@]2(C)C(=O)CC[C@@H]32)C1 [prasterone-acetate] |  |  |  |  |  |  |  |  |  |  |  |  |  |  |  |  |  |  |  |  |  |  |  |  |  | 0 | 0 | 0 | 0 |  |  |  |  |  |
| C/C=C(/C)C(=O)O[C@H]1C(C)=C[C@]23C(=O)[C@@H](C=C(CO)[C@@H](O)[C@]12O)[C@H]1[C@@H](C[C@H]3C)C1(C)C [ingenol-mebutate] | 109 | 110 | 89.8 | 81.8 | 84.6 | 117 | 110 | 96.6 | 102 | 105 | 101 | 88.5 | 75.2 | 89.1 | 93.4 | 99.2 | 83.9 | 54.7 | 53 | 51.7 | > 10 | > 10 | > 10 |  | 3.2 | 0 | 0.8 | 16.5 | 12 | 102 | 86.4 | 66.4 | 70.7 | 77.7 |
| CCCCCCOc1cc2c(cc1N(C)c1ncc(C(=O)O)cn1)C(C)(C)CCC2(C)C [PA-452] |  |  |  |  |  |  |  |  |  |  | 97.7 | 92.8 | 97 | 101 | 103 |  |  |  |  |  |  |  | > 10 |  |  |  | 0 |  |  |  |  |  |  |  |
| NC(=S)N/N=C/c1ccncc1 [perchlozone] | 97.2 | 100 | 91.1 | 106 | 92.6 | 104 | 100 | 105 | 95.6 | 100 | 102 | 98.4 | 101 | 104 | 106 | 93.9 | 98.9 | 93.7 | 99.2 | 108 | > 10 | > 10 | > 10 | > 10 | 0 | 0 | 0 | 0 |  |  |  |  |  |  |
| OC[C@H]1O[C@@H](O[C@@H]2[C@@H](CO)OC(O)(CO)[C@H]2O)[C@H](O)[C@@H](O)[C@H]1O (mixture of isomers) [lactulose] | 100 | 98.2 | 101 | 104 | 106 | 107 | 112 | 99.1 | 104 | 101 |  |  |  |  |  | 94.1 | 97.7 | 89.1 | 94.6 | 110 | > 10 | > 10 |  | > 10 | 0 | 0 |  | 0 |  |  |  |  |  |  |
| C=C1C[C@@]2(O)O[C@@]3(C[C@H]2C(C)C)[C@@H](C)CC[C@@H]13 [curcumol] | 108 | 95.3 | 93.6 | 97.3 | 103 | 96.4 | 107 | 111 | 101 | 106 |  |  |  |  |  | 100 | 101 | 97.1 | 91.9 | 102 | > 10 | > 10 |  | > 10 | 0 | 0 |  | 0 |  |  |  |  |  |  |
| CCN1CCN(C(=O)N[C@@H](C(=O)N[C@@H]2C(=O)N3C(C(=O)O)=C(CSc4nnnn4C)CS[C@H]23)c2ccc(O)cc2)C(=O)C1=O [cefoperazone] | 98.5 | 107 | 102 | 100 | 99.6 | 89.8 | 101 | 97 | 97.1 | 102 |  |  |  |  |  | 96.7 | 104 | 99.5 | 106 | 98.4 | > 10 | > 10 |  | > 10 | 0 | 0 |  | 0 |  |  |  |  |  |  |
| Cc1cc(NS(=O)(=O)c2ccc(N)cc2)no1 [sulfamethoxazole] |  |  |  |  |  |  |  |  |  |  |  |  |  |  |  |  |  |  |  |  |  |  |  |  |  | 0 | 0 |  | 0 |  |  |  |  |  |
| CN1CCN(CCOc2cc(OC3CCOCC3)c3c(Nc4c(Cl)ccc5c4OCO5)ncnc3c2)CC1 [saracatinib] | 107 | 102 | 102 | 84.4 | 63.8 | 87.7 | 116 | 95 | 42.3 | 9.6 | 98.6 | 102 | 88.8 | 78.9 | 47.5 | 97.5 | 97.1 | 102 | 75.2 | 21 |  | 0.7 | 1.09 | 1.37 | 3.8 | 12 | 5.2 | 8 | 3.3 | 100 | 101 | 107 | 80.2 | 72.1 |
| N#Cc1c(O)c2c(-c3ccc(-c4ccccc4O)cc3)csc2[nH]c1=O | 97.8 | 102 | 95.2 | 98.8 | 96.5 | 94.3 | 94.8 | 96.7 | 95.5 | 104 | 103 | 108 | 99.8 | 106 | 99.1 | 105 | 101 | 97.3 | 95.4 | 99 | > 10 | > 10 | > 10 | > 10 | 0 | 0 | 0 | 0 |  |  |  |  |  |  |
| Oc1ccc(OC2CCCCO2)cc1 (stereo not drawn) [deoxyarbutin] | 89.2 | 99.1 | 99.1 | 97.3 | 104 | 98.1 | 98.2 | 97.4 | 110 | 92.9 |  |  |  |  |  |  |  |  |  |  | > 10 | > 10 |  |  | 0 | 0 |  |  |  |  |  |  |  |  |
| CN1CCN(CCCN2c3ccccc3Sc3ccc(C(F)(F)F)cc32)CC1 [trifluoperazine] | 92 | 86.1 | 84.3 | 82.6 | 83 | 103 | 99.3 | 102 | 101 | 72.2 | 97.4 | 100 | 101 | 98 | 85.5 | 95.5 | 103 | 105 | 88.7 | 76.2 | > 10 |  | > 10 | > 10 | 4.6 | 1 | 0.4 | 2.2 | 3.5 | 106 | 89.7 | 98 | 92 | 56.6 |
